One data set deals with T1, human aromatase (Homo sapiens, UniProt P11511).
T1 construct: purchased BioVision, Milpitas, CA, USA
T1 sequence (P11511 1-503): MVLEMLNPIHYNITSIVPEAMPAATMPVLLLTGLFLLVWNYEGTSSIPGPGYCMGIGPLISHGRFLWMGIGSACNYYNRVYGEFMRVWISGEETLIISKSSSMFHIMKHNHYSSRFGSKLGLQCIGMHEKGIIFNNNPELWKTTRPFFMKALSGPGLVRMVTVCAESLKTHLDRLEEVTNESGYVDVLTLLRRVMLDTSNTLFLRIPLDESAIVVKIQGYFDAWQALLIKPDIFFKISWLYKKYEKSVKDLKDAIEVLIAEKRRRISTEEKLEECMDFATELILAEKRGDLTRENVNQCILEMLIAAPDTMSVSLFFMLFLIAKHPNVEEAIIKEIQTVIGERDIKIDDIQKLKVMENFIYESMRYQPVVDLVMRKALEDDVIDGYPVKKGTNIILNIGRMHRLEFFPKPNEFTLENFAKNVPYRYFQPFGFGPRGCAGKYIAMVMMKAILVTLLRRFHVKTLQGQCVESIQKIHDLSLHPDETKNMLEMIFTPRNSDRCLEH
Nature of the data set: Aromatase inhibition, fluorimetric assay kit (Aromatase-CYP19A Inhibitor Screening kit, BioVision). The format is biochemical. The note with it: for Aromatase inhibition (in words): screening at 1 µM. The procedure: The activity was measured each minute for 60 min and the value obtained for each compound after 10 min was chosen to calculate the percentage of the aromatase inhibition.
The aromatase inhibitory activity was determined using a commercial fluorimetric assay kit (Aromatase-CYP19A Inhibitor Screening kit, BioVision, Milpitas, CA, USA), as reported elsewhere. The assay utilizes a fluorogenic aromatase substrate that is converted into a highly fluorescent metabolite detected in the visible range (Ex/Em 488/527 nm). […] During the incubation, the Aromatase Substrate/NADP+ mixture was prepared, and the reaction was started by adding 30 µL of this solution to each well (aside from the background control), reaching a final reaction volume of 100 µL/well. The fluorescence emission (527 nm) was measured immediately (within 1 min) by means of a fluorometer equipped with a 488 nm filter (GloMax®-Multi Detection System, Promega, Madison, WI, USA) and afterwards monitored for 60 min. […] The assay was performed in the same experimental conditions used for the initial screening of compounds. Dose–response curves were fitted with GraphPad Prism 5.0 (GraphPad Software, San Diego, CA, USA).

The subject of data set [1] is MCF7 breast cancer cell line. Nature of the data set: Cell metabolic activity / viability (MTT assay) on MCF7.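 On all read-outs here: MTT optical density read-out in human MCF7 cells, normalised to DMSO vehicle-treated cells as 100%, with IC50 derived from fitted concentration–response curves.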 Type of data set: cell-based, human. To be noted: for IC50: Homo sapiens, MTT, tested 0 to 500 µM.
Procedure: Human skin fibroblasts (HFF-1, CVCL_3285) and human breast cancer MCF7 (HTB-22™, CVCL_0031) were purchased from ATCC and maintained in Dulbecco’s modified Eagle’s medium (DMEM) high glucose (EuroClone, Milan, Italy) supplemented with 10% of fetal bovine serum (FBS) and 1% of penicillin/streptomycin (Gibco—Thermo Fisher Scientific, MD, USA).
Cell metabolic activity of HFF-1 and MCF7 cells was assessed by MTT (3-(4,5-Dimethylthiazol-2-yl)-2,5-Diphenyltetrazolium Bromide) test (Sigma Aldrich, Milan, Italy). […] After the established exposure times, cells were incubated with MTT (0.5 mg/mL) and the optical density was measured as reported elsewhere [63]. Results were expressed as the percentage of cells in the presence of vehicle (DMSO) set as 100% and each experiment was performed in triplicate (n = 3). Concentration–response curves and IC50 were fitted and calculated with GraphPad Prism 5.0 (GraphPad Software, San Diego, CA, USA).
The test system of a further data set is MCF7 cells. Nature of the data set: Cytotoxicity test (lactate dehydrogenase release). Type of data set: cell-based, human. The note with it: MCF7, 0–250 µM, 24 h. The procedure: To assess whether the decrease in metabolic activity is a consequence of cytotoxic occurrence in the presence of compounds 1b, 1c, and 1j, lactate dehydrogenase (LDH) released from MCF7 was measured in response to loading concentrations of 0–250 µM after a 24 h exposure. […] It is, therefore, plausible to assume that all tested compounds exert their anti-proliferative effect on MCF7 cells through cytotoxic induction and 1c is the most promising compound, being active already at lower doses.
MCF7 cells were seeded and stimulated as previously described for the MTT test. After the exposure time, cell supernatants were collected, centrifuged at 450× g for 4 min, and stored on ice. In order to quantify the cytotoxicity of loading concentrations of compounds 1b, 1c, and 1j (0–250 µM), the CytoTox 96® Non-Radioactive Cytotoxicity Assay (Promega Corporation, Madison, WI, USA) was performed as previously reported. The results were normalized on MTT absorbances and expressed as fold increases on the LDH released by cultures in the presence of vehicle (DMSO) set as 1.

[2] abbreviates: MCF7, 24 h, 24 h, read-out: MCF7 Cells IC50 24 h.
The mark [3] stands for this setting: MCF7, 72 h, 72 h, read-out: MCF7 Cells IC50 72 h.

Where two headings read alike, the source gives them in different places.

In the case of `O=S(=O)(Oc1ccc(/C=C/c2ccccc2)cc1)c1ccccc1` [1a, 4-[(E)-2-Phenylvinyl]phenylbenzenesulfonate], the melting point lay within 127 to 130 °C. Further, the “Aromatase inhibition (in words)” value on human aromatase was “very low activity”.
The molecule `O=[N+]([O-])c1cccc(S(=O)(=O)Oc2ccc(/C=C/c3ccccc3)cc2)c1` [1b, 4-[(E)-2-Phenylvinyl]phenyl 3-nitrobenzenesulfonate] returned a melting point of 152 to 155 °C. For the same molecule, in data set [1] (setting [2]), the IC50 was determined as 159 ± 9.9 µM. In data set [1] (setting [3]), the IC50 worked out at 240 ± 6.7 µM. Further, in data set [1] (MCF7, 10 µM, 24 h), the “Viability (% of control) - 24 h” value is recorded as 69.32 ± 14.99 % of control. For the same molecule, the “Viability (% of control) - 72 h” value in data set [1] (MCF7, 10 µM, 72 h) is given as 98.33 ± 5.24 % of control. The “Viability (% of control) - 24 h” value in data set [1] (MCF7, 25 µM, 24 h) is on record as 79.12 ± 9.66 % of control. In addition, the “Viability (% of control) - 72 h” value in data set [1] (MCF7, 25 µM, 72 h) is reported as 99.99 ± 9.30 % of control. Also, the “Viability (% of control) - 24 h” value in data set [1] (MCF7, 50 µM, 24 h) is on record as 80.69 ± 4.08 % of control. For the same molecule, in data set [1] (MCF7, 50 µM, 72 h), the “Viability (% of control) - 72 h” value is 93.39 ± 5.39 % of control. In data set [1] (MCF7, 100 µM, 24 h), the “Viability (% of control) - 24 h” value is given as 73.93 ± 1.87 % of control. In addition, in data set [1] (MCF7, 100 µM, 72 h), the “Viability (% of control) - 72 h” value is 77.31 ± 7.02 % of control. In data set [1] (MCF7, 250 µM, 24 h), the “Viability (% of control) - 24 h” value is recorded as 45.57 ± 3.42 % of control. For the same molecule, the “Viability (% of control) - 72 h” value in data set [1] (MCF7, 250 µM, 72 h) is listed as 57.01 ± 1.01 % of control. Also, the “Viability (% of control) - 24 h” value in data set [1] (MCF7, 500 µM, 24 h) is listed as 35.83 ± 2.22 % of control. For the same molecule, the “Viability (% of control) - 72 h” value in data set [1] (MCF7, 500 µM, 72 h) is given as 36.11 ± 0.35 % of control. Moreover, the “LDH release, dose dependence (in words)” value in the data set on MCF7 cells is recorded as “raises only at the highest concentration administered (250 µM)”. On human aromatase, the inhibition at 1 µM was 97%. The 50% inhibitory concentration (IC50) at human aromatase (tested at concentrations from 0.01 to 100 μM, mean of triplicate determinations) came to 2.51 µM.
The molecule `N#Cc1ccc(S(=O)(=O)Oc2ccc(/C=C/c3ccccc3)cc2)cc1` [1e, 4-[(E)-2-Phenylvinyl]phenyl 4-cyanobenzenesulfonate] showed an inhibition at 1 µM against human aromatase of 56.1%.
For `COc1ccc(S(=O)(=O)Oc2ccc(/C=C/c3ccccc3)cc2)c(OC)c1` [1g, 4-[(E)-2-Phenylvinyl]phenyl 2,4-dimethoxybenzenesulfonate], the melting point lay within 141 to 142 °C.
`CCS(=O)(=O)Oc1ccc(/C=C/c2ccccc2)cc1` [1i, 4-[(E)-2-Phenylvinyl]phenyl ethanesulfonate] displayed a melting point of 112 to 114 °C. At human aromatase, at 1 µM the inhibition was 100%.
In turn, `O=S(=O)(Oc1ccc(/C=C/c2ccccc2)cc1)c1ccc(Cl)s1` [1k, 4-[(E)-2-Phenylvinyl]phenyl 5-chlorothiophene-2-sulfonate] displayed a melting point of 160 to 162 °C. Also, on human aromatase, 1 µM produced 60.3% inhibition.
The corresponding values for `O=S(=O)(Nc1ccc(/C=C/c2ccccc2)cc1)c1ccccc1` [2a, N-{4-[(E)-2-Phenylvinyl]phenyl}benzenesulfonamide] are 160 to 162 °C and 47.8%.
The corresponding values for `O=[N+]([O-])c1cccc(S(=O)(=O)Nc2ccc(/C=C/c3ccccc3)cc2)c1` [2b, 3-Nitro-N-{4-[(E)-2-phenylvinyl]phenyl}benzenesulfonamide] are 210 to 211 °C and 67.3%.
The corresponding values for `Cc1ccc(S(=O)(=O)Nc2ccc(/C=C/c3ccccc3)cc2)cc1[N+](=O)[O-]` [2c, 4-Methyl-3-nitro-N-{4-[(E)-2-phenylvinyl]phenyl}benzenesulfonamide] are 246 to 247 °C and 44.8%.
In turn, `Cc1ccc(S(=O)(=O)Nc2ccc(/C=C/c3ccccc3)cc2)cc1` [2d, 4-Methyl-N-{4-[(E)-2-phenylvinyl]phenyl}benzenesulfonamide] yielded a melting point of 182 to 183 °C.
Same read-out and setting: the figure for `N#Cc1ccc(S(=O)(=O)Nc2ccc(/C=C/c3ccccc3)cc2)cc1` [2e, 4-Cyano-N-{4-[(E)-2-phenylvinyl]phenyl}benzenesulfonamide] is 238 to 239 °C; for `CC(=O)Nc1ccc(S(=O)(=O)Nc2ccc(/C=C/c3ccccc3)cc2)cc1` [2f, N-{4-[({4-[(E)-2-Phenylvinyl]phenyl}amino)sulfonyl]phenyl}acetamide] it is 230 to 231 °C.
The same measure, in the same setting: next, `COc1ccc(S(=O)(=O)Nc2ccc(/C=C/c3ccccc3)cc2)c(OC)c1` [2g, 2,4-Dimethoxy-N-{4-[(E)-2-phenylvinyl]phenyl}benzenesulfonamide]: 213 to 215 °C; `CS(=O)(=O)Nc1ccc(/C=C/c2ccccc2)cc1` [2h, N-{4-[(E)-2-Phenylvinyl]phenyl}methanesulfonamide]: 250 to 251 °C.
With `CCS(=O)(=O)Nc1ccc(/C=C/c2ccccc2)cc1` [2i, N-{4-[(E)-2-Phenylvinyl]phenyl}ethanesulfonamide], the melting point was 230 to 231 °C.
In the case of `O=S(=O)(Nc1ccc(/C=C/c2ccccc2)cc1)c1ccc(Cl)s1` [2k, 5-Chloro-N-{4-[(E)-2-phenylvinyl]phenyl}thiophene-2-sulfonamide], the melting point lay within 200 to 202 °C. Besides, at human aromatase, the “Aromatase inhibition (in words)” value is “inactive”.
Regarding `Oc1ccc(/C=C/c2cc(O)cc(O)c2)cc1` [RSV, trans-3,4′,5-trihydroxystilbene, reference compound], the IC50 in data set [1] (setting [2]) is above 250 µM; in data set [1] (setting [3]), 83 ± 3.8 µM. In addition, the “Viability (% of control) - 24 h” value was 80.27 ± 3.18 % of control in data set [1] (MCF7, 10 µM, 24 h); 84.94 ± 6.59 % of control in data set [1] (MCF7, 25 µM, 24 h); 87.44 ± 1.93 % of control in data set [1] (MCF7, 50 µM, 24 h); 78.29 ± 4.03 % of control in data set [1] (MCF7, 100 µM, 24 h); 60.29 ± 0.93 % of control in data set [1] (MCF7, 250 µM, 24 h); 34.30 ± 5.01 % of control in data set [1] (MCF7, 500 µM, 24 h). The “Viability (% of control) - 72 h” value in data set [1] (MCF7, 10 µM, 72 h) is 91.92 ± 5.44 % of control; in data set [1] (MCF7, 25 µM, 72 h) it was 73.93 ± 9.52 % of control; in data set [1] (MCF7, 50 µM, 72 h), 66.54 ± 5.77 % of control; in data set [1] (MCF7, 100 µM, 72 h), 47.75 ± 2.67 % of control; in data set [1] (MCF7, 250 µM, 72 h) it was 38.05 ± 8.70 % of control; in data set [1] (MCF7, 500 µM, 72 h), 15.33 ± 4.88 % of control. Further, the Metabolically active cells in data set [1] (MCF7, 50 µM, 24 h, DMSO alone = 100%) is given as “slightly active at this concentration”.

The values are drawn from publication PMC8537897, “Design, Synthesis and Biological Evaluation of Aromatase Inhibitors Based on Sulfonates and Sulfonamides of Resveratrol” (Pharmaceuticals, 2021).
